According to ChEMBL document CHEMBL5727650, “Heteroaryl substituted aminopyridine compounds” (2020):

Target: T1, Interleukin-1 receptor-associated kinase 4 (Homo sapiens, UniProt Q9NWZ3)
T1 sequence (Q9NWZ3 whole entry): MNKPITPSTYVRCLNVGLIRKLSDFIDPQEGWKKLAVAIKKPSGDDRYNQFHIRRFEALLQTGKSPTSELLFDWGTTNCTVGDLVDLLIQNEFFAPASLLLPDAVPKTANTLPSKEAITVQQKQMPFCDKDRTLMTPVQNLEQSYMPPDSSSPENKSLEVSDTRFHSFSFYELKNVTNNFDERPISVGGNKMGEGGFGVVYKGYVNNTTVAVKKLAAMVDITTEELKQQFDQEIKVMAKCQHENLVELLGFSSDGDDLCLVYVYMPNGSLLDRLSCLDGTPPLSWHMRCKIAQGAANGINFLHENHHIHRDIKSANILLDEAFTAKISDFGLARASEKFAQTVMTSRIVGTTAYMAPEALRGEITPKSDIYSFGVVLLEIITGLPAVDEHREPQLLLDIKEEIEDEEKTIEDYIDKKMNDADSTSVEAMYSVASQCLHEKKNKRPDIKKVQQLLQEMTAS
Test: IRAK4 Inhibition Assay: The assays were performed in U-bottom 384-well plates. The final assay volume was 30 μL prepared from 15 μL additions of enzyme and substrates (fluoresceinated peptide and ATP) and test compounds in assay buffer (20 mM HEPES pH 7.2, 10 mM MgCl2, 0.015% Brij 35 and 4 mM DTT). The reaction was initiated by the combination of IRAK4 with substrates and test compounds. The reaction mixture was incubated at room temperature for 60 min. and terminated by adding 45 μL of 35 mM EDTA to each sample. The reaction mixture was analyzed on the Caliper LABCHIP® 3000 (Caliper, Hopkinton, Mass.) by electrophoretic separation of the fluorescent substrate and phosphorylated product. Inhibition data were calculated by comparison to no enzyme control reactions for 100% inhibition and vehicle-only reactions for 0% inhibition. The final concentrations of reagents in the assays are ATP, 500 μM; FL-IPTSPITTTYFFFKKK peptide 1.5 μM; IRAK4, 0.6 nM; and DMSO, 1.6%.

| Structure (SMILES) | IC50 |
| --- | --- |
| CCCNc1cc(-c2cnn3cc(Cl)cnc23)ncc1C(=O)NC[C@@H](F)C(C)(C)O | 5 nM |
| CC(C)(F)CNc1cc(-c2cnn3cc(C#N)cnc23)ncc1C(=O)NC[C@@H](F)C(C)(C)O | 12 nM |
| CC(C)(O)[C@H](F)CNC(=O)c1cnc(-c2cnn3cc(C#N)cnc23)cc1Nc1ccc(C(N)=O)cc1 | 1 nM |
| CC(=O)N[C@H]1CC[C@H](NC(=O)c2cnc(-c3cnn4cc(C#N)cnc34)cc2NC(C)C)CC1 | 15 nM |
| CC1(Nc2cc(-c3cnc4cc(Cl)cnn34)ncc2C(=O)NC[C@H](F)C(C)(C)O)CC1 | 2 nM |
| CC(C)(O)[C@H](F)CNC(=O)c1cnc(-c2cnn3cc(Cl)cnc23)cc1Nc1ccn(CC(F)F)c1 | 2 nM |
| CC(C)(O)[C@H](F)CNC(=O)c1cnc(-c2cnn3cc(C#N)cnc23)cc1NC1CCC(F)(F)C1O (some centres not stated) | 13 nM |
| CC(C)(O)[C@H](F)CNC(=O)c1cnc(-c2cnn3cc(C#N)cnc23)cc1Nc1ccn(CC(F)F)c1 | 2 nM |
| CC(C)(C)Nc1cc(-c2cnc3cc(C#N)cnn23)ncc1C(=O)NC[C@@H](F)C(C)(C)O | 2 nM |
| COC(C)(C)[C@H]1CC[C@H](NC(=O)c2cnc(-c3cnc4cc(Cl)cnn34)cc2NC2COC2)CC1 | 7 nM |
| CC(C)(O)[C@H](F)CNC(=O)c1cnc(-c2cnn3cc(C#N)cnc23)cc1NC1CCC1 | 2 nM |
| CC(C)(O)[C@H](F)CNC(=O)c1cnc(-c2cnn3cc(Cl)cnc23)cc1NC12CC(C1)C2 | 9 nM |
